System: 171881-019-R-J1-PDC tumor spheroids, viability
Test: Anticancer human tumor 171881-019-R-J1-PDC patient-derived invasive breast carcinoma cell line growth inhibition [GQUAD]
Settings: spheroids with HUVEC and MSC; for IC50: curve of first compound; for viability, T/C: stronger effect = lower value
Summary of the method: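 Tumor cells were grown as complex spheroids with HUVEC endothelial cells and mesenchymal stem cells as stroma. G-quadruplex stabilizers were combined with targeted agents over half-log dilutions from near the clinical Cmax, or from 10 microM.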

[1] = second compound 0.0316 µM, first compound 0.0316 µM
[2] = second compound 0.0316 µM, first compound 0.1 µM
[3] = second compound 0.0316 µM, first compound 0.316 µM
[4] = second compound 0.0316 µM, first compound 1 µM
[5] = second compound 0.0316 µM, first compound 3.16 µM
[6] = second compound 0.0316 µM, first compound 10 µM
[7] = second compound 0.1 µM, first compound 0.0316 µM
[8] = second compound 0.1 µM, first compound 0.1 µM
[9] = second compound 0.1 µM, first compound 0.316 µM
[10] = second compound 0.1 µM, first compound 1 µM
[11] = second compound 0.1 µM, first compound 3.16 µM
[12] = second compound 0.1 µM, first compound 10 µM
[13] = second compound 0.316 µM, first compound 0.0316 µM
[14] = second compound 0.316 µM, first compound 0.1 µM
[15] = second compound 0.316 µM, first compound 0.316 µM
[16] = second compound 0.316 µM, first compound 1 µM
[17] = second compound 0.316 µM, first compound 3.16 µM
[18] = second compound 0.316 µM, first compound 10 µM
[19] = second compound 1 µM, first compound 0.0316 µM
[20] = second compound 1 µM, first compound 0.1 µM
[21] = second compound 1 µM, first compound 0.316 µM
[22] = second compound 1 µM, first compound 1 µM
[23] = second compound 1 µM, first compound 3.16 µM
[24] = second compound 1 µM, first compound 10 µM
[25] = second compound 3.16 µM, first compound 0.0316 µM
[26] = second compound 3.16 µM, first compound 0.1 µM
[27] = second compound 3.16 µM, first compound 0.316 µM
[28] = second compound 3.16 µM, first compound 1 µM
[29] = second compound 3.16 µM, first compound 3.16 µM
[30] = second compound 3.16 µM, first compound 10 µM
[31] = second compound 10 µM, first compound 0.0316 µM
[32] = second compound 10 µM, first compound 0.1 µM
[33] = second compound 10 µM, first compound 0.316 µM
[34] = second compound 10 µM, first compound 1 µM
[35] = second compound 10 µM, first compound 3.16 µM
[36] = second compound 10 µM, first compound 10 µM
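Note: spheroids exposed to compounds for 7 days.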
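Throughout, for viability, T/C: 100% = DMSO vehicle control viability.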

## Nc1ccn(C2OC(CO)C(O)C2(F)F)c(=O)n1 (stereo not drawn) + Cc1cnc(CNC(=O)c2c(=O)c3ccc(N4CCCN(C)CC4)nc3n3c2sc2ccccc23)cn1
Second compound 0.0316 µM
  IC50: < 31.6 nM
Second compound 0.1 µM
  IC50: < 31.6 nM
Second compound 0.316 µM
  IC50: < 31.6 nM
Second compound 1 µM
  IC50: < 31.6 nM
Second compound 3.16 µM
  IC50: < 31.6 nM
Second compound 10 µM
  IC50: < 31.6 nM
[1]
  viability, T/C: 27.8%
[2]
  viability, T/C: 29.9%
[3]
  viability, T/C: 39.4%
[4]
  viability, T/C: 38%
[5]
  viability, T/C: 33.7%
[6]
  viability, T/C: 31.2%
[7]
  viability, T/C: 29.8%
[8]
  viability, T/C: 31.9%
[9]
  viability, T/C: 37.1%
[10]
  viability, T/C: 41.4%
[11]
  viability, T/C: 37%
[12]
  viability, T/C: 33.8%
[13]
  viability, T/C: 31.5%
[14]
  viability, T/C: 36.2%
[15]
  viability, T/C: 44%
[16]
  viability, T/C: 37.9%
[17]
  viability, T/C: 39.1%
[18]
  viability, T/C: 34.7%
[19]
  viability, T/C: 35%
[20]
  viability, T/C: 35.6%
[21]
  viability, T/C: 42.7%
[22]
  viability, T/C: 41.2%
[23]
  viability, T/C: 44.2%
[24]
  viability, T/C: 37.3%
[25]
  viability, T/C: 36.2%
[26]
  viability, T/C: 38.6%
[27]
  viability, T/C: 43.8%
[28]
  viability, T/C: 43.3%
[29]
  viability, T/C: 44.9%
[30]
  viability, T/C: 40%
[31]
  viability, T/C: 33.2%
[32]
  viability, T/C: 37.3%
[33]
  viability, T/C: 39.1%
[34]
  viability, T/C: 45.6%
[35]
  viability, T/C: 46%
[36]
  viability, T/C: 40.8%

## CC1COCCN1c1cc(C2(S(C)(=N)=O)CC2)nc(-c2ccnc3[nH]ccc23)n1 (stereo not drawn) + CN(C)c1ccc(Nc2c3ccc(NC(=O)CCN4CCCC4)cc3nc3cc(NC(=O)CCN4CCCC4)ccc23)cc1
Second compound 0.0316 µM
  IC50: 1370 nM
Second compound 0.1 µM
  IC50: 1190 nM
Second compound 0.316 µM
  IC50: 667 nM
Second compound 1 µM
  IC50: < 31.6 nM
Second compound 3.16 µM
  IC50: < 31.6 nM
Second compound 10 µM
  IC50: < 31.6 nM
[1]
  viability, T/C: 97.3%
[2]
  viability, T/C: 109%
[3]
  viability, T/C: 99.8%
[4]
  viability, T/C: 62.6%
[5]
  viability, T/C: 15.8%
[6]
  viability, T/C: 6.43%
[7]
  viability, T/C: 98.9%
[8]
  viability, T/C: 99.1%
[9]
  viability, T/C: 81%
[10]
  viability, T/C: 59.1%
[11]
  viability, T/C: 16.8%
[12]
  viability, T/C: 6.7%
[13]
  viability, T/C: 77.7%
[14]
  viability, T/C: 88%
[15]
  viability, T/C: 63%
[16]
  viability, T/C: 41.6%
[17]
  viability, T/C: 16.7%
[18]
  viability, T/C: 4.97%
[19]
  viability, T/C: 26%
[20]
  viability, T/C: 13.1%
[21]
  viability, T/C: 20.5%
[22]
  viability, T/C: 11.9%
[23]
  viability, T/C: 7.12%
[24]
  viability, T/C: 2.2%
[25]
  viability, T/C: 1.87%
[26]
  viability, T/C: 1.5%
[27]
  viability, T/C: 1.71%
[28]
  viability, T/C: 0.99%
[29]
  viability, T/C: 0.76%
[30]
  viability, T/C: 0.35%
[31]
  viability, T/C: 0.19%
[32]
  viability, T/C: 0.55%
[33]
  viability, T/C: 0.48%
[34]
  viability, T/C: 0.52%
[35]
  viability, T/C: 0.54%
[36]
  viability, T/C: 0.25%

## COc1cc(C2c3cc4c(cc3C(OC3OC5COC(C)OC5C(O)C3O)C3COC(=O)C23)OCO4)cc(OC)c1O (stereo not drawn) + CN(C)c1ccc(Nc2c3ccc(NC(=O)CCN4CCCC4)cc3nc3cc(NC(=O)CCN4CCCC4)ccc23)cc1
Second compound 0.0316 µM
  IC50: 4590 nM
Second compound 0.1 µM
  IC50: 3500 nM
Second compound 0.316 µM
  IC50: 2630 nM
Second compound 1 µM
  IC50: < 31.6 nM
Second compound 3.16 µM
  IC50: < 31.6 nM
Second compound 10 µM
  IC50: < 31.6 nM
[1]
  viability, T/C: 114%
[2]
  viability, T/C: 103%
[3]
  viability, T/C: 94.9%
[4]
  viability, T/C: 79%
[5]
  viability, T/C: 51.7%
[6]
  viability, T/C: 41.2%
[7]
  viability, T/C: 106%
[8]
  viability, T/C: 108%
[9]
  viability, T/C: 88.9%
[10]
  viability, T/C: 76%
[11]
  viability, T/C: 49.8%
[12]
  viability, T/C: 37.9%
[13]
  viability, T/C: 86.4%
[14]
  viability, T/C: 87.5%
[15]
  viability, T/C: 69.2%
[16]
  viability, T/C: 56.5%
[17]
  viability, T/C: 54.4%
[18]
  viability, T/C: 30.3%
[19]
  viability, T/C: 25.3%
[20]
  viability, T/C: 15.9%
[21]
  viability, T/C: 17.2%
[22]
  viability, T/C: 11.2%
[23]
  viability, T/C: 10.6%
[24]
  viability, T/C: 13.6%
[25]
  viability, T/C: 1.86%
[26]
  viability, T/C: 2.35%
[27]
  viability, T/C: 2.46%
[28]
  viability, T/C: 1.99%
[29]
  viability, T/C: 2.23%
[30]
  viability, T/C: 1.76%
[31]
  viability, T/C: 0.27%
[32]
  viability, T/C: 0.23%
[33]
  viability, T/C: 0.79%
[34]
  viability, T/C: 0.49%
[35]
  viability, T/C: 0.45%
[36]
  viability, T/C: 0.34%

## COc1cc(C2c3cc4c(cc3C(OC3OC5COC(C)OC5C(O)C3O)C3COC(=O)C23)OCO4)cc(OC)c1O (stereo not drawn) + Cc1[nH]c2ccc(F)cc2c1-c1nc2c3cccnc3c3ncccc3c2[nH]1
Second compound 0.0316 µM
  IC50: 946 nM
Second compound 0.1 µM
  IC50: 765 nM
Second compound 0.316 µM
  IC50: 826 nM
Second compound 1 µM
  IC50: 862 nM
Second compound 3.16 µM
  IC50: < 31.6 nM
Second compound 10 µM
  IC50: < 31.6 nM
[1]
  viability, T/C: 93.2%
[2]
  viability, T/C: 88.2%
[3]
  viability, T/C: 74.5%
[4]
  viability, T/C: 46.9%
[5]
  viability, T/C: 33.3%
[6]
  viability, T/C: 22.6%
[7]
  viability, T/C: 97.9%
[8]
  viability, T/C: 98.4%
[9]
  viability, T/C: 77.7%
[10]
  viability, T/C: 40.8%
[11]
  viability, T/C: 33.3%
[12]
  viability, T/C: 24.2%
[13]
  viability, T/C: 98.7%
[14]
  viability, T/C: 92.2%
[15]
  viability, T/C: 72.8%
[16]
  viability, T/C: 43.8%
[17]
  viability, T/C: 33.3%
[18]
  viability, T/C: 23.1%
[19]
  viability, T/C: 80.1%
[20]
  viability, T/C: 87.6%
[21]
  viability, T/C: 66.3%
[22]
  viability, T/C: 45.2%
[23]
  viability, T/C: 37.7%
[24]
  viability, T/C: 23.4%
[25]
  viability, T/C: 28.9%
[26]
  viability, T/C: 18.7%
[27]
  viability, T/C: 22.6%
[28]
  viability, T/C: 18.7%
[29]
  viability, T/C: 17.7%
[30]
  viability, T/C: 11.5%
[31]
  viability, T/C: 40%
[32]
  viability, T/C: 50.6%
[33]
  viability, T/C: 35%
[34]
  viability, T/C: 33.5%
[35]
  viability, T/C: 26.5%
[36]
  viability, T/C: 15.8%

Reference: PubChem BioAssay AID2060498 (Molecular Pharmacology Branch, DTP, NCI, 2025)
